Reference: US20140243418A1, “RASAGILINE FOR PARKINSON'S DISEASE MODIFICATION” (Teva Pharmaceutical Industries, Ltd., priority 2008, published 2014)
Values joined by “and” are separate entries in the source; they are usually repeats but may differ in a detail not shown here. Identical values can stand only once. Like-named read-outs stand apart in the source and are kept apart here.

System: Early Stage PD patients
Conditions: for 1 mg Early-Delayed Start Slope Difference, Estimate / 2 mg Early-Delayed Start Slope Difference, Estimate / 1 mg-Placebo Slope Difference, Estimate / 2 mg-Placebo Slope Difference, Estimate: Total UPDRS slopes; for 1 mg Early-Delayed Start Slope Difference, Estimate / 2 mg Early-Delayed Start Slope Difference, Estimate: Active Phase weeks 48-72, non-inferiority margin 0.15; for 1 mg Early-Delayed Start Slope Difference, Estimate / 1 mg-Placebo Slope Difference, Estimate / 1 mg-Placebo Week 36-12, Estimate / 1 mg Early-Delayed Start at week 72, Estimate: rasagiline 1 mg; for 2 mg Early-Delayed Start Slope Difference, Estimate / 2 mg-Placebo Slope Difference, Estimate / 2 mg-Placebo Week 36-12, Estimate / 2 mg Early-Delayed Start at week 72, Estimate: rasagiline 2 mg; for 1 mg-Placebo Slope Difference, Estimate / 2 mg-Placebo Slope Difference, Estimate: PC phase weeks 12-36, model that assumes linearity; for 1 mg-Placebo Week 36-12, Estimate / 2 mg-Placebo Week 36-12, Estimate: Total UPDRS, PC phase, alternative categorical model that compares week 36 to week 12; for outcome of the primary analysis (three hierarchal endpoints): both doses, post-hoc; for 1 mg Early-Delayed Start at week 72, Estimate / 2 mg Early-Delayed Start at week 72, Estimate: change from baseline in Total UPDRS, end of the Active Phase
Description: 1 mg/day rasagiline during Phase I and Phase II; • Group 2. 2 mg/day rasagiline during Phase I and Phase II; • Group 3. placebo during Phase I followed by 1 mg/day rasagiline during Phase II; and • Group 4. placebo during Phase I followed by 2 mg/day rasagiline during Phase II.
Thus, ‘early-start’ patients receive 72 weeks of treatment with rasagiline (1 or 2 mg once daily) and ‘delayed-start’ patients receive 36 weeks of placebo followed by 36 weeks of rasagiline (1 or 2 mg once daily). […] If subjects in either treatment group required additional anti-parkinsonian medication during the placebo-controlled stage of the trial, they could proceed directly to Phase II. Once in Phase II, no additional anti-PD therapy is permitted. If the patient requires additional medication in this stage they are discontinued from the study.
1 mg/day rasagiline during Phase I and Phase II (1 mg early start) • 2. 2 mg/day rasagiline during Phase I and Phase II (2 mg early start) • 3. placebo during Phase I followed by 1 mg/day rasagiline during Phase II (1 mg delayed start) • 4. placebo during Phase I followed by 2 mg/day rasagiline during Phase II (2 mg delayed start)
If, at any stage during the placebo-controlled phase the investigator determines that a subject needs additional anti-PD therapy, the subject will proceed to Phase II of the study. The investigator, aided by a questionnaire, will give careful consideration to the issue of a subject's need for additional anti-PD therapy. Scheduled in-clinic visits will be conducted at baseline and at weeks 4, 12, 24 and 36. Therefore, altogether there will be 5 scheduled visits during this phase. Unscheduled visits may be conducted at any time to assess a subject's need for additional anti-PD therapy, for safety reasons or for any other reason.
Thus, subjects who receive 1 mg rasagiline during Phase I will continue to receive 1 mg during Phase II, subjects who receive 2 mg rasagiline during Phase I will continue to receive 2 mg during Phase II, and subjects who receive placebo during Phase I will receive either 1 mg or 2 mg rasagiline during Phase II. The study blind will be maintained. No additional anti-PD therapy will be permitted during this phase. This applies to both the subjects who enter Phase II after completing the full 36-week duration of Phase I and to subjects who are switched from Phase I to Phase II because of a need of additional anti-PD therapy. If, the investigator determines that a subject needs additional anti-PD therapy during Phase II, the subject will be prematurely withdrawn from the study. The investigator, aided by a questionnaire, will give careful consideration to the issue of a subject's need for additional anti-PD therapy. Scheduled in-clinic visits will be conducted every 6 weeks. Therefore, altogether there will be 6 visits during this phase—at weeks 42, 48, 54, 60, 66 and 72. Unscheduled visits may be conducted at any time to assess a subject's need for additional anti-PD therapy, for safety reasons or for any other reason.

[1] = rasagiline 1 mg/day delayed-start, Baseline UPDRS > 25.5 (Upper Quartile)
[2] = rasagiline 1 mg/day delayed-start, Baseline UPDRS ≦ 25.5 (Lower 3 Quartiles)
[3] = rasagiline 1 mg/day delayed-start, all subjects
[4] = rasagiline 1 mg/day delayed-start, all subjects, listed as Rasagiline
[5] = rasagiline 1 mg/day early-start minus delayed-start, Baseline UPDRS > 25.5 (Upper Quartile)
[6] = rasagiline 1 mg/day early-start minus delayed-start, Baseline UPDRS ≦ 25.5 (Lower 3 Quartiles)
[7] = rasagiline 1 mg/day early-start, Baseline UPDRS > 25.5 (Upper Quartile)
[8] = rasagiline 1 mg/day early-start, Baseline UPDRS ≦ 25.5 (Lower 3 Quartiles)
[9] = rasagiline 1 mg/day early-start, all subjects
[10] = rasagiline 1 mg/day early-start, all subjects, listed as Rasagiline

**Q.** How did the Disease modifying effect (1 mg treatment, according to FDA requirements as predefined in the statistical analysis plan) turn out when `C#CCN[C@@H]1CCc2ccccc21` [rasagiline] was run?
**A.** Its Disease modifying effect is “demonstrated”.

**Q.** And the Disease modifying effect (2 mg treatment)?
**A.** The Disease modifying effect was “not evident”.

**Q.** What about the “symptomatic effect observed in TEMPO” value (ADAGIO placebo controlled (PC) phase, rasagiline 1 mg and 2 mg versus placebo) of the same molecule?
**A.** The value was “replicated”.

**Q.** And the “change in Total UPDRS score at week 72” value (Early Stage PD patients, dose not stated)?
**A.** The value was 2.8.

**Q.** What about the “rate of progression of PD” value (Early Stage PD patients, improved from 0.139, dose not stated) of the same molecule?
**A.** The value was 0.066 score (change in Total UPDRS)/week.

**Q.** And the “1 mg Early-Delayed Start Slope Difference, Estimate” value (ACTE)?
**A.** Its value is 0.000.

**Q.** What about the “1 mg Early-Delayed Start Slope Difference, Estimate” value (CO) of the same molecule?
**A.** The value was −0.011.

**Q.** What about the “1 mg Early-Delayed Start Slope Difference, Estimate” value (PP) of the same molecule?
**A.** The value was −0.011.

**Q.** What about the “2 mg Early-Delayed Start Slope Difference, Estimate” value (ACTE) of the same molecule?
**A.** Its value is 0.029.

**Q.** What about the “2 mg Early-Delayed Start Slope Difference, Estimate” value (CO) of the same molecule?
**A.** Its value is 0.021.

**Q.** What about the “2 mg Early-Delayed Start Slope Difference, Estimate” value (PP) of the same molecule?
**A.** The value was 0.022.

**Q.** And the “1 mg-Placebo Slope Difference, Estimate” value (CO data analysis set)?
**A.** The value was −0.033.

**Q.** And the “1 mg-Placebo Slope Difference, Estimate” value (ITT data analysis set)?
**A.** The value was −0.046.

**Q.** What about the “1 mg-Placebo Slope Difference, Estimate” value (PP data analysis set) of the same molecule?
**A.** Its value is −0.037.

**Q.** And the “2 mg-Placebo Slope Difference, Estimate” value (CO data analysis set)?
**A.** Its value is −0.061.

**Q.** And the “2 mg-Placebo Slope Difference, Estimate” value (ITT data analysis set)?
**A.** The value was −0.072.

**Q.** And the “2 mg-Placebo Slope Difference, Estimate” value (PP data analysis set)?
**A.** The value was −0.065.

**Q.** And the “1 mg-Placebo Week 36-12, Estimate” value (CO)?
**A.** Its value is −0.799.

**Q.** And the “1 mg-Placebo Week 36-12, Estimate” value (ITT)?
**A.** Its value is −1.043.

**Q.** And the “1 mg-Placebo Week 36-12, Estimate” value (PP)?
**A.** The value was −0.873.

**Q.** And the “2 mg-Placebo Week 36-12, Estimate” value (CO)?
**A.** The value was −1.463.

**Q.** What about the “2 mg-Placebo Week 36-12, Estimate” value (ITT) of the same molecule?
**A.** Its value is −1.668.

**Q.** And the “2 mg-Placebo Week 36-12, Estimate” value (PP)?
**A.** The value was −1.553.

**Q.** And the “difference in change in Total UPDRS score vs delayed treatment, maintained” value (between Week 48 and Week 72, dose not stated)?
**A.** The value was 1.7 score.

**Q.** And the “outcome of the primary analysis (three hierarchal endpoints)” value (lower three quartiles of baseline UPDRS scores (≦25.5))?
**A.** The value was “neither dose met all of the primary endpoints”.

**Q.** What about the “outcome of the primary analysis (three hierarchal endpoints)” value (upper quartile of baseline total UPDRS (>25.5)) of the same molecule?
**A.** Its value is “met all 3 primary endpoints”.

**Q.** And the “1 mg Early-Delayed Start at week 72, Estimate” value (ACTE data analysis set)?
**A.** The value was −1.680.

**Q.** And the “1 mg Early-Delayed Start at week 72, Estimate” value (CO data analysis set)?
**A.** Its value is −1.592.

**Q.** And the “1 mg Early-Delayed Start at week 72, Estimate” value (PP data analysis set)?
**A.** Its value is −1.594.

**Q.** And the “2 mg Early-Delayed Start at week 72, Estimate” value (ACTE data analysis set)?
**A.** Its value is 0.356.

**Q.** And the “2 mg Early-Delayed Start at week 72, Estimate” value (CO data analysis set)?
**A.** Its value is −0.088.

**Q.** And the “2 mg Early-Delayed Start at week 72, Estimate” value (PP data analysis set)?
**A.** The value was −0.024.

**Q.** And the “reduction in Total UPDRS score at week 72” value (corresponding to change of 2.8 at week 72)?
**A.** Its value is 62.2%.

**Q.** And the “duration for which benefits of early treatment are sustained” value (early treatment vs later initiation)?
**A.** Its value is “at least 18 months”.

**Q.** What about the “Primary 2: estimated change in total UPDRS from baseline to week 72” value [1] of the same molecule?
**A.** Its value is 5.41.

**Q.** And the “Primary 3: rate of change in UPDRS, weeks 48-72” value [1]?
**A.** The value was 0.095 UPDRS units/wk.

**Q.** What about the “Primary 2: estimated change in total UPDRS from baseline to week 72” value [2] of the same molecule?
**A.** The value was 4.03.

**Q.** What about the “Primary 3: rate if change in UPDRS, weeks 48-72” value [2] of the same molecule?
**A.** Its value is 0.08 UPDRS units/wk.

**Q.** What about the “Primary 2: estimated change in total UPDRS from baseline to week 72” value [3] of the same molecule?
**A.** The value was 4.50.

**Q.** What about the “Primary 3: rate of change in UPDRS, weeks 48-72” value [3] of the same molecule?
**A.** Its value is 0.085 UPDRS units/wk.

**Q.** What about the “Primary 2: estimated change in total UPDRS from baseline to week 72” value [4] of the same molecule?
**A.** Its value is 4.52±0.56.

**Q.** What about the “Primary 3: rate of change in UPDRS, weeks 48-72” value [4] of the same molecule?
**A.** Its value is 0.085±0.02 UPDRS units/wk.

**Q.** What about the “Primary 2: estimated change in total UPDRS from baseline to week 72, early-start-delayed-start” value [5] of the same molecule?
**A.** The value was −3.40±1.66 and −3.40.

**Q.** And the “Primary 3: rate of change in UPDRS, weeks 48-72, early-start-delayed-start” value [5]?
**A.** The value was −0.02 UPDRS units/wk.

**Q.** And the “Primary 2: estimated change in total UPDRS from baseline to week 72, early-start-delayed-start” value [6]?
**A.** Its value is −1.08.

**Q.** What about the “Primary 3: rate if change in UPDRS, weeks 48-72, early-start-delayed-start” value [6] of the same molecule?
**A.** The value was 0.004 UPDRS units/wk.

**Q.** What about the “Primary 2: estimated change in total UPDRS from baseline to week 72, early-start-delayed-start” value (rasagiline 1 mg/day early-start minus delayed-start, all subjects) of the same molecule?
**A.** Its value is −1.68±0.75 and −1.68.

**Q.** What about the “Primary 3: rate of change in UPDRS, weeks 48-72, early-start-delayed-start” value (rasagiline 1 mg/day early-start minus delayed-start, all subjects, non-inferiority margin 0.15) of the same molecule?
**A.** The value was 0.00 UPDRS units/wk.

**Q.** And the “Primary 2: estimated change in total UPDRS from baseline to week 72” value [7]?
**A.** Its value is 2.01.

**Q.** And the “Primary 3: rate of change in UPDRS, weeks 48-72” value [7]?
**A.** The value was 0.075 UPDRS units/wk.

**Q.** And the “Primary 2: estimated change in total UPDRS from baseline to week 72” value [8]?
**A.** Its value is 2.94.

**Q.** What about the “Primary 3: rate if change in UPDRS, weeks 48-72” value [8] of the same molecule?
**A.** The value was 0.09 UPDRS units/wk.

**Q.** And the “Primary 2: estimated change in total UPDRS from baseline to week 72” value [9]?
**A.** Its value is 2.82.

**Q.** What about the “Primary 3: rate of change in UPDRS, weeks 48-72” value [9] of the same molecule?
**A.** Its value is 0.085 UPDRS units/wk.

**Q.** And the “Primary 2: estimated change in total UPDRS from baseline to week 72” value [10]?
**A.** Its value is 2.82±0.53.

**Q.** What about the “Primary 3: rate of change in UPDRS, weeks 48-72” value [10] of the same molecule?
**A.** Its value is 0.085±0.02 UPDRS units/wk.
